Measured values: patent publication US12583889B2, “Cell penetrating peptides” (Oxford University Innovation Limited, priority 2017, dated 2026)
Marks after values point to notes of the source that are not given here.

Assays:
[1] = tested on: SMN2 exon 7 inclusion in GM03813 SMA patient fibroblasts; experiment: Cell screening of peptide-PMO conjugates for SMN2 exon 7 inclusion in human SMA patient fibroblast cell culture; type: cell-based; settings: for cell activity (SMN2 exon 7 inclusion): second screen, FIG. 5, qPCR; for cell activity (SMN2 exon 7 inclusion) / cell activity (SMN2 exon 7 inclusion) relative to peptide 14: 667 nM and 2 μM; for cell activity (SMN2 exon 7 inclusion) relative to peptide 14: first screen, FIG. 4, qPCR; for cell activity (SMN2 exon 7 inclusion) relative to S* peptide: FIG. 6, 4 μM, 2 μM, 1 μM, 500 nM, 250 nM
Procedure: In order to generate further peptide candidates containing a glycosylated Serine residue for in vivo evaluation, the inventors synthesized a range of similarly glycosylated peptides, conjugated them to the same PMO therapeutic and screened the resultant P-PMO conjugates in human SMA patient fibroblast cell culture, which assesses their ability to enter cell nuclei to give exon inclusion.
GM03813 (Coriell Institute) derived from SMA type I patient fibroblast were seeded out at 2500 cells/well in 100 μl Dulbecco's modified Eagle's medium (DMEM) with GlutaMAX and 5% fetal bovine serum (FBS) (Life Technologies, Inc.) in 96 well plates, and incubated for 16 h in a cell culture incubator (37° C., 5% CO2, 100% rel. humidity). On the next day cells were then treated with 10 μl P-PMO at different concentrations (in water) in duplicate for 24 hours. After removal of the supernatant, cells were washed once with PBS-buffer and were lysed in lysis buffer (10 mM Tris, 3 mM MgCl2, 1 mM CaCl2), 1% Triton X-100, 200 u/ml DNase I and 200 u/ml Proteinase K) for 10 min. Afterwards the lysate were transferred into a 96-well plate (Eppendorf twintec) and incubated at 75° C. for 15 min and subsequently cooled to 4° C. and used immediately. The mRNA levels of SMN2 FL, SMN2 Δ7 and GAPDH were quantified using Taqman-based qRT-PCR (Superscript® III Platinium® One Step qRT-PCR, Thermo Fisher) and SMN2 specific Primers and probes (purchased from IDT Integrated DNA Technologies). (19) SMN2 FL and Δ7 mRNAs were normalized to GAPDH. […]

[2] = tested on: human SMN2-gene; experiment: Full-length SMN2 transcript qPCR in tissues of adult SMA mice after intravenous peptide-PMO conjugate; type: in vivo; settings: for full-length SMN2 transcripts, mean expression level, Brainstem / full-length SMN2 transcripts, mean expression level, Cerebellum / full-length SMN2 transcripts, mean expression level, Cortex / full-length SMN2 transcripts, mean expression level, Liver / full-length SMN2 transcripts, mean expression level, Gastroc / full-length SMN2 transcripts, mean expression level, Quad / full-length SMN2 transcripts, mean expression level, TA / full-length SMN2 transcripts, mean expression level, Cervical / full-length SMN2 transcripts, mean expression level, Lumbar / full-length SMN2 transcripts, mean expression level, Thoracic: adult SMA mice, 2x15 mg/kg IV approx. 48 hours apart, tissue 7 days post final administration, normalised to saline treated controls; for full-length SMN2 transcripts, mean expression level, Brainstem / full-length SMN2 transcripts, mean expression level, Cerebellum / full-length SMN2 transcripts, mean expression level, Cortex: Central Nervous System; for full-length SMN2 transcripts, mean expression level, Liver: Off Target; for full-length SMN2 transcripts, mean expression level, Gastroc: Skeletal Muscle (gastrocnemius); for full-length SMN2 transcripts, mean expression level, Quad: Skeletal Muscle (quadriceps); for full-length SMN2 transcripts, mean expression level, TA: Skeletal Muscle (tibialis anterior); for full-length SMN2 transcripts, mean expression level, Cervical / full-length SMN2 transcripts, mean expression level, Lumbar / full-length SMN2 transcripts, mean expression level, Thoracic: spinal cord
From the text: Smn1tm1Hung/wt; […]; […] Tissues were harvested one week post administration. […] Statistical significance determined by Student'[…]≤0.00005. […] ID NO.151), Exons 7-8 Rev: [NT] ID NO.152). […] [NT] ID NO.154). […] PolJ Forward: [NT] ID NO.155); PolJ Reverse: [NT]

Ac-RBRBRS*RBRBR-G [Peptide 70]
cell activity (SMN2 exon 7 inclusion) [1]: remarkably good activity

Ac-RBRRBRRBR S*FL RBRBRBR-G [Peptide 18]
cell activity (SMN2 exon 7 inclusion) relative to peptide 14 [1]: no significant effect on cell activity

Ac-RBRRBRRBRS*FLRBRBR-G [Peptide 29]
cell activity (SMN2 exon 7 inclusion) relative to peptide 14 [1]: less active than the first peptide 14

Ac-RBRRBRRBRS*FLRBRBRR-G [Peptide 33]
cell activity (SMN2 exon 7 inclusion) relative to peptide 14 [1]: without a large loss in cell activity

Ac-RBRRBRRBRS*FLRBRRR-G [Peptide 34]
cell activity (SMN2 exon 7 inclusion) relative to peptide 14 [1]: without a large loss in cell activity

Ac-RBRRBRRRS*FLRBRBRBR-G [Peptide 36]
cell activity (SMN2 exon 7 inclusion) relative to peptide 14 [1]: without a large loss in cell activity

Ac-RBRRRRRS*FLRBRBRBR-G [Peptide 37]
cell activity (SMN2 exon 7 inclusion) relative to peptide 14 [1]: without a large loss in cell activity

Ac-RRBRRBRS*FLRBRBRBR-G [Peptide 24]
cell activity (SMN2 exon 7 inclusion) relative to peptide 14 [1]: less active than the first peptide 14

Ac-RRBRS*FLRBRBRBR-G [Peptide 26]
cell activity (SMN2 exon 7 inclusion) relative to peptide 14 [1]: slightly less active only

Ac-RS*RRBRRBRBRXR-G [Peptide 59]
cell activity (SMN2 exon 7 inclusion) [1]: no significant alteration in activity levels

Ac-RXRRBRFQILYRBRXR-B [Peptide 7]
full-length SMN2 transcripts, mean expression level, Brainstem [2]: 1.11
full-length SMN2 transcripts, mean expression level, Cerebellum [2]: 0.97
full-length SMN2 transcripts, mean expression level, Cortex [2]: 1.01
full-length SMN2 transcripts, mean expression level, Liver [2]: 3.19
full-length SMN2 transcripts, mean expression level, Gastroc [2]: 2.92****
full-length SMN2 transcripts, mean expression level, Quad [2]: 2.80****
full-length SMN2 transcripts, mean expression level, TA [2]: 3.34****
full-length SMN2 transcripts, mean expression level, Cervical [2]: 1.26
full-length SMN2 transcripts, mean expression level, Lumbar [2]: 0.97
full-length SMN2 transcripts, mean expression level, Thoracic [2]: 1.33

Ac-RXRRBRRFLRBRXR-B [Peptide 6]
full-length SMN2 transcripts, mean expression level, Brainstem [2]: 1.38**
full-length SMN2 transcripts, mean expression level, Cerebellum [2]: 1.05
full-length SMN2 transcripts, mean expression level, Cortex [2]: 1.13
full-length SMN2 transcripts, mean expression level, Liver [2]: 2.78
full-length SMN2 transcripts, mean expression level, Gastroc [2]: 3.22****
full-length SMN2 transcripts, mean expression level, Quad [2]: 2.89***
full-length SMN2 transcripts, mean expression level, Cervical [2]: 0.88**
full-length SMN2 transcripts, mean expression level, Lumbar [2]: 1.23*
full-length SMN2 transcripts, mean expression level, Thoracic [2]: 1.37*

Ac-RXRRBRRFQILYRBRXR-B [Peptide 3]
full-length SMN2 transcripts, mean expression level, Brainstem [2]: 0.86
full-length SMN2 transcripts, mean expression level, Cerebellum [2]: 1.025
full-length SMN2 transcripts, mean expression level, Cortex [2]: 0.93
full-length SMN2 transcripts, mean expression level, Liver [2]: 4.57
full-length SMN2 transcripts, mean expression level, Gastroc [2]: 3.4
full-length SMN2 transcripts, mean expression level, Quad [2]: 3.35****
full-length SMN2 transcripts, mean expression level, TA [2]: 3.95***
full-length SMN2 transcripts, mean expression level, Cervical [2]: 0.92
full-length SMN2 transcripts, mean expression level, Lumbar [2]: 1.1
full-length SMN2 transcripts, mean expression level, Thoracic [2]: 1

Ac-RXRRBRRFS^1*RBRXR-B [Peptide 74]
cell activity (SMN2 exon 7 inclusion) relative to S* peptide ([1]; third screen): Improved activity

Ac-RXRRBRRQFLRBRXR-B [Peptide 5]
full-length SMN2 transcripts, mean expression level, Brainstem [2]: 1.22
full-length SMN2 transcripts, mean expression level, Cerebellum [2]: 1
full-length SMN2 transcripts, mean expression level, Cortex [2]: 1.11
full-length SMN2 transcripts, mean expression level, Liver [2]: 2.73
full-length SMN2 transcripts, mean expression level, Gastroc [2]: 2.49****
full-length SMN2 transcripts, mean expression level, Quad [2]: 2.46****
full-length SMN2 transcripts, mean expression level, TA [2]: 2.80****
full-length SMN2 transcripts, mean expression level, Cervical [2]: 1.24*
full-length SMN2 transcripts, mean expression level, Lumbar [2]: 1.25*
full-length SMN2 transcripts, mean expression level, Thoracic [2]: 1.23

Ac-RXRRBRRS*S*RBRXR-G [Peptide 67]
cell activity (SMN2 exon 7 inclusion) [1]: retained good activity in cells

Ac-RXRRBRRS*S*S* RBRXR-G [Peptide 68]
cell activity (SMN2 exon 7 inclusion) [1]: retained good activity in cells

Ac-RXRRBRRXR S*FLRXRBRXR-BB [Peptide 14]
cell penetration in several compartments of the central nervous system and the skeletal muscle compared with currently available peptides 1-7 ([2]; Table 3 data): increased
full-length SMN2 transcripts, mean expression level, Brainstem [2]: 1.97***
full-length SMN2 transcripts, mean expression level, Cerebellum [2]: 1.26
full-length SMN2 transcripts, mean expression level, Cortex [2]: 1.50*
full-length SMN2 transcripts, mean expression level, Liver [2]: 3.45
full-length SMN2 transcripts, mean expression level, Gastroc [2]: 2.82****
full-length SMN2 transcripts, mean expression level, Quad [2]: 2.45***
full-length SMN2 transcripts, mean expression level, TA [2]: 3.24****
full-length SMN2 transcripts, mean expression level, Cervical [2]: 1.23**
full-length SMN2 transcripts, mean expression level, Lumbar [2]: 2.23
full-length SMN2 transcripts, mean expression level, Thoracic [2]: 2.38**
increase in cell penetration / exon inclusion compared with the currently available peptide conjugated to the same antisense oligonucleotide ([2]; in vivo, Table 3 data, peptide 17 versus peptide 6, peptide 14 versus peptide 2): up to 59.7%

Ac-RXRRBRRXRQFLRXRBRXR-B [Peptide 2]
full-length SMN2 transcripts, mean expression level, Brainstem [2]: 1.36***
full-length SMN2 transcripts, mean expression level, Cerebellum [2]: 1.15*
full-length SMN2 transcripts, mean expression level, Cortex [2]: 1.16*
full-length SMN2 transcripts, mean expression level, Liver [2]: 2.91
full-length SMN2 transcripts, mean expression level, Gastroc [2]: 2.98****
full-length SMN2 transcripts, mean expression level, Quad [2]: 2.52****
full-length SMN2 transcripts, mean expression level, TA [2]: 3.45****
full-length SMN2 transcripts, mean expression level, Cervical [2]: 1.78**
full-length SMN2 transcripts, mean expression level, Lumbar [2]: 1.48**
full-length SMN2 transcripts, mean expression level, Thoracic [2]: 1.49*

Ac-RXRRBRRXRRXRBRXRS*FL-G [Peptide 48]
cell activity (SMN2 exon 7 inclusion) relative to peptide 14 [1]: almost as active as the first peptide

Ac-RXRRBRRXRS*FRXRBRXR-G [Peptide 43]
cell activity (SMN2 exon 7 inclusion) relative to peptide 14 [1]: only a slightly reduced activity

Ac-RXRRBRRXRS*RXRBRXR-G [Peptide 44]
cell activity (SMN2 exon 7 inclusion) relative to peptide 14 [1]: no significant effect on cell activity

Ac-RXRRBRRXRYQFLIRXRBRXR-B [Peptide 1]
full-length SMN2 transcripts, mean expression level, Brainstem [2]: 1.48***
full-length SMN2 transcripts, mean expression level, Cerebellum [2]: 1.25*
full-length SMN2 transcripts, mean expression level, Cortex [2]: 1.29**
full-length SMN2 transcripts, mean expression level, Liver [2]: 2.81
full-length SMN2 transcripts, mean expression level, Gastroc [2]: 3.03***
full-length SMN2 transcripts, mean expression level, Quad [2]: 3.37***
full-length SMN2 transcripts, mean expression level, TA [2]: 3.30***
full-length SMN2 transcripts, mean expression level, Cervical [2]: 1.50***
full-length SMN2 transcripts, mean expression level, Lumbar [2]: 1.28***
full-length SMN2 transcripts, mean expression level, Thoracic [2]: 1.45***

Ac-RXRRBRRYQFLIRBRXR-B [Peptide 4]
full-length SMN2 transcripts, mean expression level, Brainstem [2]: 0.98
full-length SMN2 transcripts, mean expression level, Cerebellum [2]: 0.96
full-length SMN2 transcripts, mean expression level, Cortex [2]: 1.1
full-length SMN2 transcripts, mean expression level, Liver [2]: 3.26
full-length SMN2 transcripts, mean expression level, Gastroc [2]: 3.64****
full-length SMN2 transcripts, mean expression level, Quad [2]: 2.70****
full-length SMN2 transcripts, mean expression level, TA [2]: 4.23****
full-length SMN2 transcripts, mean expression level, Cervical [2]: 1.14*
full-length SMN2 transcripts, mean expression level, Lumbar [2]: 1
full-length SMN2 transcripts, mean expression level, Thoracic [2]: 1.12

Ac-RXRRBRRZS*RBRXR-B [Peptide 73]
cell activity (SMN2 exon 7 inclusion) at low doses ([1]; third screen, FIG. 6): good activity at low doses
cell activity (SMN2 exon 7 inclusion) relative to S* peptide ([1]; third screen): greatly improved alteration in activity levels

Ac-RXRRS*RRBRBRXR-G [Peptide 58]
cell activity (SMN2 exon 7 inclusion) [1]: no significant alteration in activity levels

Ac-RXRXRS*RXRXR-G [Peptide 71]
cell activity (SMN2 exon 7 inclusion) [1]: remarkably good activity
